Structures are written as SMILES. Like-named read-outs stand apart in the source and are kept apart here.

One series concerns rabbit aorta. Kind of series: Relaxing effect on isolated rabbit aorta contracted (depolarized) by KCl. The settings on record: Oryctolagus cuniculus, read-out: ED50 (dose causing a 50% relaxation of the precontracted arteries). Here is the method: I. RELAXING EFFECT ON ISOLATED RABBIT AORTA CONTRACTED BY KCl
The thoracic aortae of male rabbits are removed, cut into narrow strips and placed under tension in an oxygenated survival medium. The contractions of these arteries, the amplitude of which is measured using a myograph, are induced by a 127 mM solution of KCl [R. Towart et al., Arzneim.-Forsch./Drug Res. 32, 338-346 (1982)]. The compounds studied are dissolved in a mixture of anhydrous ethanol and double distilled water (1:1) v/v, the percentage of ethanol in the baths being less than or equal to 0.3% at the end of the experiment. When the contraction plateau is reached, the compound is added to the medium in increasing doses every 15 minutes.

The test system of series [1] is spontaneously hypertensive rats. Description: Antihypertensive activity in spontaneously hypertensive rats, oral administration. In kind it is in vivo. Particulars: for change in vivo at 10 mg/kg / change in vivo at 30 mg/kg: Rattus norvegicus. As for the experimental part: Spontaneously hypertensive rats aged between 16 and 20 weeks are used. The systolic pressure is measured by plethysmography and the heart rate is obtained from the pressure graph. The compounds studied are administered orally.

Another series in a line: in vivo. The settings on record: rat, intravenous, male Wistar rats weighing 300 g. As for the experimental part:
The LD50 was determined by intravenous administration to male Wistar rats weighing 300 g.

The subject of the next series is anesthetized dogs. Kind of series: Hemodynamic effects on anesthetized dogs, intraduodenal administration. In kind it is in vivo, Mongrel dogs. The settings on record: 0.35 mg/kg. Here is the method: III. HEMODYNAMIC EFFECTS ON ANESTHETIZED DOGS Mongrel dogs are anesthetized with pentobarbital sodium (25 mg/kg i.v.). Each animal is placed under artificial respiration and a catheter is introduced into the aorta to measure the arterial pressure. The outputs of the aorta (O. Aor.), right femoral artery (O. Fem.) and left coronary artery (descending part) (O. Cor.) are measured continuously by means of electromagnetic rings. The total peripheral resistances (T.P.R.) are also calculated. […]

Where [2] appears, read: rabbit aorta depolarized by 127 mM KCl.
[3] abbreviates: 30 mg/kg, read-out: % variation Heart rate.
Where [4] appears, read: 30 mg/kg, read-out: % variation Systolic pressure.

As for `COC(=O)C1=C(C)NC(C)=C(C(=O)OCC2COC(c3ccccc3)(C(F)(F)F)O2)C1c1cccc([N+](=O)[O-])c1` (stereo not drawn) [Example 12], the EC50 in the series on rabbit aorta (setting [2]) stood at 5000 nM. In series [1] (10 mg/kg), the “duration of the effect, Systolic pressure” value (“duration … Systolic pressure” for short) is above 24 h. Moreover, the change in vivo at 10 mg/kg in series [1] (10 mg/kg, read-out: % variation Heart rate) was 31.2%; in series [1] (10 mg/kg, read-out: % variation Systolic pressure), -41.4 ± 10%.
Regarding `COC(=O)C1=C(C)NC(C)=C(C(=O)OCC2COCO2)C1c1cccc([N+](=O)[O-])c1` (racemic) [Example 3], the EC50 in the series with rabbit aorta (setting [2]) was 43 nM.
`COC(=O)C1=C(C)NC(C)=C(C(=O)OCC2COC3(CCCC3)O2)C1c1cccc([N+](=O)[O-])c1` (stereo not drawn) [Example 5, methyl (1,4-dioxaspiro[4,4]nonan-2-yl)methyl 1,4-dihydro-2,6-dimethyl-4-(3-nitrophenyl)pyridine-3,5-dicarboxylate]: the “duration of the effect, Heart rate” value in series [1] (30 mg/kg) is 4 h. The values for the change in vivo at 30 mg/kg in series [1] (setting [3]) and in series [1] (setting [4]) were 19.3% and -40.4 ± 9.4%, respectively.
As usually defined, the LD50 is the dose expected to kill half of the subjects tested. Regarding `COC(=O)C1=C(C)NC(C)=C(C(=O)OCC2CSC(C)(C)O2)C1c1cccc([N+](=O)[O-])c1` (racemic) [Example 6], in the series with rabbit aorta (setting [2]), the EC50 came out at 35 nM. Further, the results for the change in vivo at 30 mg/kg in series [1] (setting [3]) and in series [1] (setting [4]) were 21.4% and -35.1 ± 9.2%, respectively. This molecule displayed an LD50 in the series “in vivo” of 34.2 mg/kg.
For `COC(=O)C1=C(C)NC(C)=C(C(=O)OCC2COC(c3ccccc3)O2)C1c1cccc([N+](=O)[O-])c1` (stereo not drawn) [Example 14], in the series on rabbit aorta (setting [2]), the EC50 was above 5000 nM. Besides, the “duration of the effect, Heart rate” value in series [1] (30 mg/kg) was above 24 h. Also, the “duration … Systolic pressure” value in series [1] (30 mg/kg) was above 24 h. The change in vivo at 30 mg/kg in series [1] (setting [3]) was 19.9%; in series [1] (setting [4]), -58.4 ± 32.9%.
Regarding `COC(=O)C1=C(C)NC(C)=C(C(=O)OCC2(C)OCCO2)C1c1cccc([N+](=O)[O-])c1` (stereo not drawn) [CP 1, methyl 2,2ethylenedioxypropyl 2,6dimethyl-4-(3-nitrophenyl)-1,4-dihydropyridine-3,5-dicarboxylate, reference compound], the EC50 in the series with rabbit aorta (setting [2]) is 250 nM. In addition, the “duration … Systolic pressure” value in series [1] (30 mg/kg) is 0 h. For the same molecule, the change in vivo at 30 mg/kg was 0% in series [1] (setting [3]) and -11.6 ± 6% in series [1] (setting [4]).
`COC(=O)C1=C(C)NC(C)=C(C(=O)OCC2COC(C(F)(F)F)(C(F)(F)F)O2)C1c1cccc([N+](=O)[O-])c1` (stereo not drawn) [Example 13]: the EC50 in the series on rabbit aorta (setting [2]) was above 5000 nM. Further, the “duration … Systolic pressure” value in series [1] (30 mg/kg) was above 24 h. For the same molecule, the change in vivo at 30 mg/kg in series [1] (setting [3]) is 25%.
Consider `COC(=O)C1=C(C)NC(C)=C(C(=O)OCCC2COC(C)(C)O2)C1c1cccc([N+](=O)[O-])c1` (racemic) [Example 4, methyl 2-[(2,2-dimethyl-1,3-dioxolan-4-yl)ethyl]1,4-dihydro-2,6-dimethyl-4-(3-nitrophenyl)pyridine-3,5-dicarboxylate], for which the EC50 in the series with rabbit aorta (setting [2]) worked out at 32 nM.
Consider `COC(=O)C1=C(C)NC(C)=C(C(=O)OC)C1c1ccccc1[N+](=O)[O-]` [nifedipine, dimethyl 1,4-dihydro-2,6-dimethyl-4-(2-nitrophenyl)pyridine-3,5-dicarboxylate, reference compound], for which the EC50 in the series with rabbit aorta worked out at 22 nM. In addition, the change in vivo at 30 mg/kg in series [1] (setting [3]) came out at 35.4%. The change in vivo at 30 mg/kg in series [1] (setting [4]) was -35.2 ± 4.7%. Moreover, in the series with anesthetized dogs, the “% variation D.P. (diastolic pressure)” value was -44.2%, the “% variation O. Aor. (output of the aorta)” value is given as “+20.5%”, the “% variation O. Cor. (output of left coronary artery)” value is reported as “+66.4%” and the “% variation O. Fem. (output of right femoral artery)” value is reported as “+76.4%”. For the same molecule, in the series with anesthetized dogs, the “duration of the effect, D.P. (diastolic pressure)” value was 240 min and the “duration of the effect, O. Fem. (output of right femoral artery)” value turned out to be 10 min. For the same molecule, in the series on anesthetized dogs (calculated), the “% variation T.P.R. (total peripheral resistances)” value is listed as -48.6% and the “duration of the effect, T.P.R. (total peripheral resistances)” value was 180 min.

(Values after patent publication US4710505A, “Asymmetric heterocyclic ester derivatives of 1,4-dihydropyridine-3,5-dicarboxylic acids” (Societe de Recherches Industrielles (S.O.R.I.), priority 1985, dated 1987).)
